Measurements taken from patent publication US20220233661A1, “METHOD OF DETERMINING ELIGIBILITY OF CANCER PATIENT FOR PEPTIDE VACCINE THERAPY” (priority 2019, published 2022).

Key:
[1] = system: anti-peptide IgG in plasma; test: Test Example 4: peptide-specific IgG titer pre and post vaccination, bead-based multiplexed Luminex assay; format: in vivo, human; details: for Pre-vaccination IgG Negative (number of patients) / Pre-vaccination IgG Positive (number of patients): cut off 10 FIU; for Post vaccination IgG: number of (positive) patients among vaccinated: positive IgG response; for Pre-vaccination IgG Negative patients: number of 2,588 patients below 10 FIU; for Pre-vaccination IgG Positive patients: number of 2,588 patients with ≥10 FIU; for Post vaccination IgG: (positive) patients: number of vaccinated patients with positive IgG response; for Correlation between immune responses and OS: Negative (mOS): patients with negative post-vaccination IgG response to the peptide; for Correlation between immune responses and OS: Positive (mOS): patients with positive post-vaccination IgG response to the peptide
Protocol: As described previously, IgG titer specific to the antigen peptides in plasma was measured by bead-based multiplexed Luminex assay (Luminex, Austin, Tex.) before and after vaccination, i.e., at the end of each cycle or at the end of the clinical trial (Non-Patent Literature 4). In brief, 30 mL of peripheral blood was obtained before and after vaccination. Plasma was incubated with 100 μL of peptide-coupled color-coded beads for 2 hours at 25° C. on a plate shaker. After the incubation, the resultant mixture was washed with a vacuum manifold apparatus and incubated with 100 μL of biotinylated goat anti-human IgG (gamma chain-specific; Vector Laboratories, Burlingame, Calif.) for 1 hour at 25° C. on a plate shaker. The plate was then washed, followed by addition of 100 μL of streptavidin-PE (Life Technologies) to each well, and incubation for 30 minutes at 25° C. on a plate shaker. The resultant beads were washed 4 times, followed by addition of 100 μL of Tween-PBS to each well, and detection of fluorescence intensity units (FIU) on the beads using the Luminex system. The cutoff values of anti-peptide IgG were set to 10 FIU in 100-fold diluted samples.
Pre-vaccination peptide-specific IgG titers to 31 peptides were measured using a Luminex system. As a detectable IgG level, 10 FIU was employed as the cut off level, as reported previously (Noguchi M, et al., Cancer Immunol Immunother. 2013 May; 62(5): 919-29; Sasada T, et al., Current Medicinal Chemistry. 21: 2332-2345, 2014; Kibe S, et al., Cancer Immunology Research 2014; 2(12): 1154-62).
Post-vaccination lgG titers were measured at the ends of the first cycle and the second cycle.

cancer patients = test: Test Example 4: correlation between vaccination with individual peptides (or peptide sets) and OS, Cox proportional hazards regression; format: in vivo, human; details: for HR: Cox proportional hazards regression, OS; for Correlation between immune responses and OS: Negative (mOS) / Correlation between immune responses and OS: Positive (mOS): Table 20, <64% neutrophil and ≥26% lymphocyte; for Correlation between immune responses and OS: Negative (mOS): vaccinated patients with negative IgG response; for Correlation between immune responses and OS: Positive (mOS): vaccinated patients with positive IgG response
Protocol: The Student's t-test and the chi-square test were used to compare quantitative and categorical variables, respectively. OS was calculated as the time in months from the date of clinical trial enrollment to death or to the date of last contact. Time-to-event endpoints were analyzed using the Kaplan-Meier method, and between-group comparison for OS was conducted using the log-rank test. Clinical efficacy of the individual peptides for OS was evaluated by univariate and multivariate analyses with the Cox proportional hazards regression model, and HR and 95% CI were calculated. All reported p-values were two-sided, and p-values less than 0.05 were considered significant. JMP version 12 or SAS version 9.4 software (SAS Institute Inc., Cary, N.C.) was used to perform all analyses.
Correlation levels of the 31 peptides for OS were evaluated by the Cox proportional hazards regression model.
Similarly, in the 2,085 advanced cancer patients (stage IV+recurrence) and the 503 non-advanced cancer patients (I-III stages) correlation levels of the 31 peptides for OS were evaluated by the Cox proportional hazards regression model. […]

[2] = Table 20, patients showing both <64% neutrophil and ≥26% lymphocyte
[3] = patients showing detectable levels
[4] = patients showing positive responses
[5] = 2,085 advanced cancer patients (stage IV+recurrence)
[6] = Table 18, all 2,588 cases, vaccinated vs non-vaccinated
[7] = Table 18, all 2,588 cases, median OS of patients under PPV containing the peptide
[8] = Table 18, all 2,588 cases, median OS of patients under PPV not containing the peptide
[9] = Table 19, 2,085 advanced cancer patients (stage IV+recurrence)
[10] = Table 19, 2,085 advanced cancer patients (stage IV+recurrence), PPV containing the peptide
[11] = Table 19, 2,085 advanced cancer patients (stage IV+recurrence), PPV not containing the peptide
[12] = Table 21, patients showing both <64% neutrophil and ≥26% lymphocyte
[13] = Table 21, patients showing both <64% neutrophil and ≥26% lymphocyte, PPV containing the peptide
[14] = Table 21, patients showing both <64% neutrophil and ≥26% lymphocyte, PPV not containing the peptide

Sequence	Post vaccination IgG Median (FIU) [1, 2]	Pre-vaccination IgG Median (FIU) [1, 2]	Pre-vaccination IgG Negative (number of patients) [1, 2]	Pre-vaccination IgG Positive (number of patients) [1, 2]	Post vaccination IgG: number of (positive) patients among vaccinated [1, 2]	Pre-vaccination IgG Negative patients [1]	Pre-vaccination IgG Positive patients [1]	Post vaccination IgG: (positive) patients [1]	Pre-vaccination IgG Median (FIU) [1, 3]	Post vaccination IgG Median (FIU) [1, 4]	Correlation between immune responses and OS: Negative (mOS) [1]	Correlation between immune responses and OS: Positive (mOS) [1]	HR (cancer patients; [6])	Vaccinate cases (mOS) (cancer patients; [7])	Non-vaccinate cases (mOS) (cancer patients; [8])	HR (cancer patients; [9])	Vaccinate cases (mOS) (cancer patients; [10])	Non-vaccinate cases (mOS) (cancer patients; [11])	Correlation between immune responses and OS: Negative (mOS) (cancer patients)	Correlation between immune responses and OS: Positive (mOS) (cancer patients)	further results
LYCESVHNF (listed as Homo sapiens) [PAP-213]	15,379 FIU	33 FIU	489	577	121(94)	1,166	1,422	279(196)	33 FIU	14,912 FIU	7.0 months	21.7 months	0.9	279(16.6) M	1271(11.4) M	0.8	228(14.9) M	1018(10.0) M	11.3 months	28.1 months	median OS of non-vaccinated cases (cancer patients; [5]): 10 months; median OS of vaccinated cases (cancer patients; [5]): 14.9 months; HR (cancer patients; [12]): 0.9; Vaccinate cases (mOS) (cancer patients; [13]): 121(23.7) M; Non-vaccinate cases (mOS) (cancer patients; [14]): 504(17.9) M
DYLRSVLEDF (listed as Homo sapiens) [Lck-488]	11,894 FIU	60 FIU	192	874	452(313)	441	2,147	1103(635)	60 FIU	11,594 FIU	7.8 months	20.6 months	0.9	1,103(12.0) M	447(12.0) M	1.0	872(10.7) M	374(10.1) M	9.3 months	24.7 months	HR (cancer patients; [12]): 1.0; Vaccinate cases (mOS) (cancer patients; [13]): 452(17.9) M; Non-vaccinate cases (mOS) (cancer patients; [14]): 173(19.7) M
ASLDSDPWV (listed as Homo sapiens) [WHSC2-103]	916 FIU	40 FIU	381	685	289(105)	915	1,673	729(222)	43 FIU	827 FIU	12.1 months	19.6 months	1.0	729(11.5) M	1,465(11.6) M	1.0	581(10.2) M	1193(10.3) M	14.4 months	27.1 months	HR (cancer patients; [12]): 1.0; Vaccinate cases (mOS) (cancer patients; [13]): 289(17.6) M; Non-vaccinate cases (mOS) (cancer patients; [14]): 617(18.0) M
DVWSFGILL (listed as Homo sapiens) [Lck-422]	446 FIU	33 FIU	945	121	33(10)	2,272	316	92(20)	33 FIU	436 FIU	11.7 months	18.5 months	1.2	92(12.0) M	1,849(11.4) M	1.1	83(11.7) M	1493(10.2) M	15.6 months	18.8 months	positive rate of patients showing ≥10 FIU, pre-vaccination peptide-specific IgG ([1]; 2,588 patients, pre-vaccination): 12%; positive immune responses post-vaccination (positive of vaccinated cases) ([1]; patients who completed at least the first cycle): 20 of 92; HR (cancer patients; [12]): 1.1; Vaccinate cases (mOS) (cancer patients; [13]): 33(15.6) M; Non-vaccinate cases (mOS) (cancer patients; [14]): 775(17.5) M
RLAEYQAYI (listed as Homo sapiens) [SART3-309]	6,009 FIU	33 FIU	253	813	154(99)	667	1,921	328(158)	35 FIU	3,070 FIU	10.5 months	21.4 months	0.9	328(12.1) M	722(11.1) M	0.9	259(11.6) M	603(9.8) M	10.4 months	28.9 months	HR (cancer patients; [12]): 0.9; Vaccinate cases (mOS) (cancer patients; [13]): 154(19.0) M; Non-vaccinate cases (mOS) (cancer patients; [14]): 280(15.6) M
KLVERLGAA (listed as Homo sapiens) [Lck-246]	15,377 FIU	48 FIU	299	767	161(92)	773	1,815	366(169)	49 FIU	10,806 FIU	8.3 months	19.3 months	1.0	366(11.4) M	684(11.6) M	1.0	300(9.8) M	562(10.4) M	8.7 months	28.2 months	HR (cancer patients; [12]): 1.1; Vaccinate cases (mOS) (cancer patients; [13]): 161(15.4) M; Non-vaccinate cases (mOS) (cancer patients; [14]): 273(18.2) M
